What was measured:
[1] = Cytotoxicity against human HET-1A cells assessed as cell viability at 500 uM after 24 hrs by MTT assay relative to control; assay type: cell-based
[2] = Cytotoxicity against human HuH7 cells assessed as cell viability at 500 uM after 24 hrs by MTT assay relative to control; assay type: cell-based, Huh-7
[3] = Cytotoxicity against human HET-1A cells assessed as cell viability after 24 hrs by MTT assay; assay type: cell-based
[4] = Cytotoxicity against human HET-1A cells assessed as cell viability at >1 mM after 24 hrs by MTT assay; assay type: cell-based

SMILES | viability at 24 h, 500 µM [1] | viability at 24 h, 500 µM [2] | CC50 at 24 h [3] | Activity [4]
C[C@H](CCCO)[C@H]1CC[C@H]2[C@@H]3[C@@H](O)C[C@@H]4C[C@H](O)CC[C@]4(C)[C@H]3CC[C@]12C | 97.5% | 44.5% |  | 
C[C@H](CCCN=[N+]=[N-])[C@H]1CC[C@H]2[C@@H]3[C@@H](O)C[C@@H]4C[C@H](O)CC[C@]4(C)[C@H]3CC[C@]12C | 75.9% | 45.1% | 688 µM | 
C[C@H](CCC(N)=O)[C@H]1CC[C@H]2[C@@H]3CC[C@@H]4C[C@H](O)CC[C@]4(C)[C@H]3C[C@H](O)[C@]12C | 38.6% | 25.2% | 39 µM | 
C[C@H](CCC(=O)O)[C@H]1CC[C@H]2[C@@H]3CC[C@@H]4C[C@H](N=[N+]=[N-])CC[C@]4(C)[C@H]3C[C@H](O)[C@]12C | 30.7% | 37.1% | 71 µM | 
C[C@H](CCC(=O)O)[C@H]1CC[C@H]2[C@@H]3CC[C@@H]4C[C@@H](N=[N+]=[N-])CC[C@]4(C)[C@H]3C[C@H](O)[C@]12C | 35.4% | 108% | 97 µM | 
C[C@H](CCC(=O)O)[C@H]1CC[C@H]2[C@@H]3CC[C@@H]4C[C@H](O)CC[C@]4(C)[C@H]3CC(=O)[C@]12C | 81.8% | 80.6% |  | 
C[C@H](CCC(=O)O)[C@H]1CC[C@H]2[C@@H]3C(=O)C[C@@H]4C[C@H](O)CC[C@]4(C)[C@H]3CC[C@]12C | 76.9% | 75.6% |  | 
CC(=O)O[C@@H]1CC[C@@]2(C)[C@H](CC(=O)[C@@H]3[C@@H]2CC[C@]2(C)[C@@H]([C@H](C)CCC(=O)O)CC[C@@H]32)C1 | 47.2% | 77.7% | 366 µM | 
C[C@H](CCC(=O)O)[C@H]1CC[C@H]2[C@@H]3C(=O)C[C@@H]4CC(=O)CC[C@]4(C)[C@H]3CC[C@]12C | 93.5% | 54.6% |  | 
C[C@H](CCC(=O)O)[C@H]1CC[C@H]2[C@@H]3[C@@H](N=[N+]=[N-])C[C@@H]4C[C@H](O)CC[C@]4(C)[C@H]3CC[C@]12C | 29% | 64.1% | 99 µM | 
C[C@H](CCC(=O)O)[C@H]1CC[C@H]2[C@@H]3[C@@H](O)C[C@@H]4C[C@H](O)CC[C@]4(C)[C@H]3C[C@H](O)[C@]12C | 80.8% | 82.3% |  | 
COC(=O)CC[C@@H](C)[C@H]1CC[C@H]2[C@@H]3[C@@H](O)C[C@@H]4C[C@H](O)CC[C@]4(C)[C@H]3CC[C@]12C | 94.3% | 81.2% |  | 
C[C@H](CCC(=O)O)[C@H]1CC[C@H]2[C@@H]3[C@@H](O)C[C@@H]4C[C@H](N=[N+]=[N-])CC[C@]4(C)[C@H]3CC[C@]12C | 36.8% | 26.6% | 45 µM | 
C[C@H](CCC(=O)O)[C@H]1CC[C@H]2[C@@H]3[C@@H](O)C[C@@H]4C[C@@H](N=[N+]=[N-])CC[C@]4(C)[C@H]3CC[C@]12C | 30.3% | 101% | 37 µM | 
C[C@H](CCC(=O)O)[C@H]1CC[C@H]2[C@@H]3[C@@H](O)C[C@@H]4CCCC[C@]4(C)[C@H]3CC[C@]12C | 39.9% | 23.7% | 30 µM | 
C[C@H](C(=O)O)[C@H]1CC[C@H]2[C@@H]3[C@@H](O)C[C@@H]4C[C@H](O)CC[C@]4(C)[C@H]3CC[C@]12C | 80.5% | 74.8% | 799 µM | 

SMILES | viability at 24 h, 500 µM [1] | viability at 24 h, 500 µM [2] | CC50 at 24 h [3] | Activity [4]
C[C@H](CCC#N)[C@H]1CC[C@H]2[C@@H]3[C@@H](O)C[C@@H]4C[C@H](O)CC[C@]4(C)[C@H]3CC[C@]12C | 94% | 85.2% |  | 
C[C@H](C#N)[C@H]1CC[C@H]2[C@@H]3[C@@H](O)C[C@@H]4C[C@H](O)CC[C@]4(C)[C@H]3CC[C@]12C | 80.5% | 87.3% |  | 
C[C@H](CCC(=O)O)[C@H]1CC[C@H]2[C@@H]3[C@H](O)C[C@@H]4C[C@H](O)CC[C@]4(C)[C@H]3CC[C@]12C [CHENODIOL] | 42.2% | 72.3% | 216 µM | 
C[C@H](CCC(=O)O)[C@H]1CC[C@H]2[C@@H]3[C@H](O)C[C@@H]4C[C@H](O)CC[C@]4(C)[C@H]3C[C@H](O)[C@]12C [CHOLIC ACID] | 102% | 90.8% | 1080 µM | 
C[C@H](CCC(=O)O)[C@H]1CC[C@H]2[C@@H]3C(=O)C[C@@H]4CC(=O)CC[C@]4(C)[C@H]3CC(=O)[C@]12C [DEHYDROCHOLIC ACID] | 111% | 54.4% |  | 
C[C@H](CCC(=O)O)[C@H]1CC[C@H]2[C@@H]3CC[C@@H]4C[C@H](O)CC[C@]4(C)[C@H]3C[C@H](O)[C@]12C [DEOXYCHOLIC ACID] | 41.2% | 57% | 257 µM | 
C[C@H](CCC(=O)NCC(=O)O)[C@H]1CC[C@H]2[C@@H]3[C@H](O)C[C@@H]4C[C@H](O)CC[C@]4(C)[C@H]3CC[C@]12C [GLYCOCHENODEOXYCHOLATE] | 130% | 105% | 729 µM | Toxic
C[C@H](CCC(=O)NCC(=O)O)[C@H]1CC[C@H]2[C@@H]3[C@H](O)C[C@@H]4C[C@H](O)CC[C@]4(C)[C@H]3C[C@H](O)[C@]12C [GLYCOCHOLIC ACID] | 105% | 87.7% |  | 
C[C@H](CCC(=O)NCC(=O)O)[C@H]1CC[C@H]2[C@@H]3CC[C@@H]4C[C@H](O)CC[C@]4(C)[C@H]3C[C@H](O)[C@]12C [GLYCODEOXYCHOLATE] | 111% | 105% | 1240 µM | Toxic
C[C@H](CCC(=O)NCC(=O)O)[C@H]1CC[C@H]2[C@@H]3[C@@H](O)C[C@@H]4C[C@H](O)CC[C@]4(C)[C@H]3CC[C@]12C [GLYCOURSODEOXYCHOLIC ACID] | 109% | 104% |  | 
C[C@H](CCC(=O)O)[C@H]1CC[C@H]2[C@@H]3C[C@H](O)[C@@H]4C[C@H](O)CC[C@]4(C)[C@H]3CC[C@]12C [HYODEOXYCHOLIC_ACID] | 88.2% | 73.8% |  | 
C[C@H](CCC(=O)O)[C@H]1CC[C@H]2[C@@H]3CC[C@@H]4C[C@H](O)CC[C@]4(C)[C@H]3C[C@@H](O)[C@]12C [LAGODEOXYCHOLATE] | 59% | 89% | 389 µM | 
C[C@H](CCC(=O)O)[C@H]1CC[C@H]2[C@@H]3CC[C@@H]4C[C@H](O)CC[C@]4(C)[C@H]3CC[C@]12C [LITHOCHOLIC ACID] | 41.7% | 63.7% | 25 µM | 
COC(=O)CC[C@@H](C)[C@H]1CC[C@H]2[C@@H]3CC[C@@H]4C[C@H](O)CC[C@]4(C)[C@H]3C[C@H](O)[C@]12C [METHYL DEOXYCHOLATE] | 28.1% | 48.8% | 46 µM | 
C[C@H](CC(=O)O)[C@H]1CC[C@H]2[C@@H]3[C@@H](O)C[C@@H]4C[C@H](O)CC[C@]4(C)[C@H]3CC[C@]12C [NORUCHOLIC ACID] | 88.8% | 71.8% |  | 
C[C@H](CCC(=O)O)[C@H]1CC[C@H]2[C@@H]3[C@@H](O)C[C@@H]4C[C@H](O)CC[C@]4(C)[C@H]3CC[C@]12C [URSODIOL] | 78.8% | 74% | 1310 µM | 
